The source made the active and inactive calls.
Tests used:
[1] = tested on: Streptococcus sp. 'group A'; experiment: Streptococcus pyogenes SK(-)GAS viability under kanamycin – luminescence, BacTiterGlo, confirmation, counter-screen for streptokinase expression inhibitor project, dose response (AID 1900); type: functional, organism-based
cells [2] = type: functional, cell-based
Nonstructural protein 1 = Nonstructural protein 1 (Influenza A virus, UniProt Q194T2); type: functional, Influenza A virus (A/California/07/2009(H1N1))
Nonstructural protein 1, sequence (Q194T2 whole entry): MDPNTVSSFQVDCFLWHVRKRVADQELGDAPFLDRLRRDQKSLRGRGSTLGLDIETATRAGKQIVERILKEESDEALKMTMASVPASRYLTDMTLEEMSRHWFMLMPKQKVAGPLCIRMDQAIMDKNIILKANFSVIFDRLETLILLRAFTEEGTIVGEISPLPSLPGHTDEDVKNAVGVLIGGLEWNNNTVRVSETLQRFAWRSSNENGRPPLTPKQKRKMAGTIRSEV

INS1 = experiment: INS-1E survival protection against cytokine death – cell-based, luminescence, retest, dose response (AID 449756); type: functional; details: Rattus norvegicus;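 note: cell death triggered by IL-1 beta plus TNF-alpha plus IFN-gamma mixture; protective hits raise ATP signal compared with cytokine alone wells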
[3] = NIH3T3 cell viability loss – ATP luminescence, mouse fibroblasts, counter-screen, dose response (AID 2010); type: functional, cell-based;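 note: cells exposed to compound for about 90 hours before reading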
[4] = target: Photoreceptor-specific nuclear receptor (Homo sapiens, UniProt Q9Y5X4); type: functional, cell-based;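 note: CHO-S cells with Gal4-NCOR and VP16-NR2E3 two-hybrid luciferase reporter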
Photoreceptor-specific nuclear receptor, sequence (Q9Y5X4 whole entry, the tested form may be a part): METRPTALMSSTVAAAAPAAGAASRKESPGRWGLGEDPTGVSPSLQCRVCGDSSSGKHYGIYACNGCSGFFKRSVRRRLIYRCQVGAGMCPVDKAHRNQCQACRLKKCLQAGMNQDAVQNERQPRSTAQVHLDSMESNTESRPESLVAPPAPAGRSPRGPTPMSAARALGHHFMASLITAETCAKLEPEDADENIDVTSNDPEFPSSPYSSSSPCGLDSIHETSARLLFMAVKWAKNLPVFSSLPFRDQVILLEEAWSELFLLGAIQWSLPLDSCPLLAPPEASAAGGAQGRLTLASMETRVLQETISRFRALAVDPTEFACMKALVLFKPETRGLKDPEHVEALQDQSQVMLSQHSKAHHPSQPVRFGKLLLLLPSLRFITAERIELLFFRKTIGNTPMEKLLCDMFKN

Streptococcus = experiment: GAS UMAA2166 growth inhibition – luminescence, BacTiterGlo, counter-screen for streptokinase expression inhibitor project, dose response (AID 1915); type: functional, organism-based;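 note: potency for reduction of bacterial viability or growth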
[5] = target: Serine/threonine-protein phosphatase PP1-alpha catalytic subunit (Homo sapiens, UniProt P62136); experiment: inhibition of protein phosphatase 1 activity – biochemical, fluorescence, dose response (AID 2403);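 note: phosphatase turnover of OMFP into fluorescent 3-O-methylfluorescein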
Serine/threonine-protein phosphatase PP1-alpha catalytic subunit, sequence (P62136 whole entry): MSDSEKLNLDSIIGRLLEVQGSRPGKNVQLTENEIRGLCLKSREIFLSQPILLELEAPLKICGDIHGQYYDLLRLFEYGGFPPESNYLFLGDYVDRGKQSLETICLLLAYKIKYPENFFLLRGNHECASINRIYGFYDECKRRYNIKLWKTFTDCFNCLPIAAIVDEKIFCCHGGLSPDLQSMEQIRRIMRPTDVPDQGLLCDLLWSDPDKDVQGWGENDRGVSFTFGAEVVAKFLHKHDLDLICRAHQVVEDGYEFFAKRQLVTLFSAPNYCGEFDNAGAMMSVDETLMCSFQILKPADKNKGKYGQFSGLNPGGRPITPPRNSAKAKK

cells [6] = type: functional, cell-based; remark: listed apart in the source
[7] = Trypanosoma cruzi growth suppression in host cells – NIH3T3 host cells, beta-gal luminescence, confirmation (AID 2044); type: functional, cell-based;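 note: intracellular parasites grown in NIH/3T3 mouse fibroblasts as host cells; luminescent beta-galactosidase reporter signal from transgenic T. cruzi replicating inside host cells; inhibitors lower the luminescence signal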
[8] = ATP-based viability loss in HeLa cells – cell-based, CellTiter-Glo luminescence, dry powder, set 2, cytotoxicity control, dose response (AID 720593); type: functional
[9] = target: Serine/threonine-protein phosphatase (Homo sapiens, UniProt Q9BPW0); experiment: Counterscreen for inhibitors of PP1: fluorescence-based biochemical high throughput dose response assay to identify inhibitors of Protein Phosphatase 5 (PP5). [Related pubchem assays: 2034 (Summary (PP5 inhibitors)), 1987 (PP5 inhibitors in singlate), 2235 (PP1 inhibitors in singlate)]
Serine/threonine-protein phosphatase, sequence (Q9BPW0 whole entry): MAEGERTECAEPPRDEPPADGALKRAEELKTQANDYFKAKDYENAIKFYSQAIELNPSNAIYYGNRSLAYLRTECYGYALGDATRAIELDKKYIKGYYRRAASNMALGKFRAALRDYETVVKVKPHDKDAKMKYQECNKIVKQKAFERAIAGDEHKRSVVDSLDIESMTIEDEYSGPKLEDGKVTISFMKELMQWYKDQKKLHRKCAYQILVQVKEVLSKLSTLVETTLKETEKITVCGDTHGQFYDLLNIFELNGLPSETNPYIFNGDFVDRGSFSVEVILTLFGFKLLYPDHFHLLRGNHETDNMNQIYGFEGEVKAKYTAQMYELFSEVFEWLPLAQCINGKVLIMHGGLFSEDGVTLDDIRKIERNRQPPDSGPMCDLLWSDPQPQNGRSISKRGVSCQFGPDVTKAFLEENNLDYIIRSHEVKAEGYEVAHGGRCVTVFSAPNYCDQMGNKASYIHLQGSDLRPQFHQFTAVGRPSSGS

[10] = BioA aminotransferase inhibition, coupled fluorescent readout – biochemical, coupled fluorescence displacement, 20-point, dry powder, dose response (AID 743357); type: functional
cells [11] = experiment: cells
Caspase-6 = Caspase-6 (Homo sapiens, UniProt P55212); experiment: inhibition of CASP6 peptide cleavage – biochemical, VEID-R110 fluorescence, cherry-pick, dose response (AID 720632)
Caspase-6, sequence (P55212 24-179 limits assumed): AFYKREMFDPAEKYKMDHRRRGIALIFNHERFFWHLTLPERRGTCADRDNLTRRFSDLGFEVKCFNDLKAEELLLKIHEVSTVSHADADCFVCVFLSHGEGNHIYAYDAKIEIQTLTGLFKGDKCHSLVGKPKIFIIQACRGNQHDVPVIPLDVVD
Caspase-6, sequence (P55212 194-293 limits assumed): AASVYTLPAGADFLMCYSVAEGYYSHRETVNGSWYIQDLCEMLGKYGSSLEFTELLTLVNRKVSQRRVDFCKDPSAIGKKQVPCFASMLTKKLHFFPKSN

[12] = African trypanosome bloodstream form growth inhibition – STIB900 strain, plate reader, cherry pick, dose response (AID 651893); type: functional, cell-based, Trypanosoma brucei rhodesiense; details: Trypanosoma brucei
[13] = T. cruzi growth inhibition in host cells, dose response, cell-based, plate reader, dry powder, set 2 (AID 652275); type: functional
[14] = Inhibition of Plasmodium falciparum NF54 Measured in Cell-Based System Using Plate Reader - 2138-11_Inhibitor_Dose_CherryPick_Activity.; type: functional
[15] = Inhibition of T. cruzi Tulahuen strain amastigotes in L-6 muscle cells Measured in Cell-Based and Microorganism Combination System Using Plate Reader - 2138-03_Inhibitor_Dose_CherryPick_Activity.; type: functional; details: Rattus norvegicus, L6
[16] = Trypanosoma cruzi replication inhibitors in host cells – cell-based, plate reader, dry powder samples, dose response (AID 651845); type: functional
[17] = intracellular Trypanosoma cruzi inhibitors in host cells – cell-based, plate reader, cherry-pick samples, set 3, dose response (AID 651818); type: functional;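 note: compounds incubated with infected cells for about four days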
[18] = anti-trypanosomal activity in BESM host cells – imaging, CA-I/72 strain, bovine embryo skeletal muscle, dry powder, dose response (AID 651885); type: functional, cell-based
[19] = mouse fibroblast viability loss – cell-based, cherry-pick samples, set 2, cytotoxicity control for T. cruzi growth inhibitor project, dose response (AID 651817); type: functional; details: NIH3T3
[20] = L6 myocyte viability loss – cell-based, plate reader, cherry-pick, cytotoxicity control, dose response (AID 651896); type: functional
[21] = antileishmanial activity on axenic amastigotes – plate reader, cherry pick, dose response (AID 651891); type: functional, cell-based; details: Leishmania donovani
[22] = general mammalian cell viability loss – activator set, cherry-pick, cytotoxicity control for miR-122 modulator project, dose response (AID 720690); type: functional, cell-based;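 note: HEK293T human cells scored for general mammalian cytotoxicity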
[23] = general mammalian cell viability loss – inhibitor set, cherry-pick, set 2, cytotoxicity control for miR-122 modulator project, dose response (AID 720697); type: functional, cell-based
[24] = activation of miR-122 Renilla sensor silencing – cell-based, Huh7 psiCHECK-miR122, Renilla luciferase, cherry-picked, dose response (AID 651956); type: functional;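 note: huh7 hepatoma cells stably carrying a psiCHECK-2 miR-122 sensor plasmid; renilla luciferase signal reporting endogenous miR-122 activity after 48 h compound exposure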
[25] = HEK293 Cytotoxicity Assay Measured in Cell-Based System Using Plate Reader - 7071-01_Inhibitor_Dose_CherryPick_Activity_Set2.; type: functional
HEK293 = experiment: viability loss in HEK293T cells – cell-based, ATP luminescence, cherry-pick samples, cytotoxicity control, dose response (AID 687005); type: functional; details: Homo sapiens;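 note: cells exposed to compound for 48 hours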
Protein Tat = target: T1, Protein Tat (Human immunodeficiency virus type 1 group M subtype B (isolate HXB2)(HIV-1), UniProt P04608); type: functional;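 note: tat binding to TAR RNA read out by fluorescence polarization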
T1 sequence (P04608 whole entry): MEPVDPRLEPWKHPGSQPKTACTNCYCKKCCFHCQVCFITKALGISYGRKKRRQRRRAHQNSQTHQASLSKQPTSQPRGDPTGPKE

[26] = IC50 of Artemis nuclease activity blockers – biochemical, fluorescence intensity, dose response (AID 720701); type: functional;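 note: Artemis endonuclease enzyme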
[27] = HIV-1 Vif–A3G interaction blockers – biochemical, TR-FRET, GST-Vif 1-94, biotin-A3G peptide, dose response retest, primary screen (AID 1117319); type: functional;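 note: TR-FRET signal of purified GST-Vif binding a biotinylated A3G peptide; inhibitors lower the FRET signal by blocking Vif and A3G binding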
[28] = viability loss in Vero cells – cytotoxicity control for Vif-APOBEC3G degradation inhibitor project, dose response (AID 1117358); type: functional; details: Vero

Structure (SMILES): Nc1nc(-c2ccccn2)nc(N)c1Cc1ccc(Cl)cc1Cl
- EC50 [1]: 3.52 µM (active)
- EC50 (cells [2]): 13.9 µM (active)
- IC50 (Nonstructural protein 1): 5.11 µM (active)
- AC50 (INS1): 4.55 µM (active)
- EC50 [3]: < 6 µM (inconclusive)
- IC50 [4]: 4.53 µM (active)
- EC50 (Streptococcus): 13.5 µM (active)
- IC50 [5]: 8.64 µM (active)
- EC50 (cells [6]): > 350 µM (not active)
- EC50 [7]: 1.26 µM (active)
- AC50 [8]: > 52 µM (inactive)
- IC50 [9]: 47.5 µM (not active)

Structure (SMILES): CN1c2ccc(-c3cccc(F)c3)cc2[C@H]2[C@H](CCN2C(=O)CCCCCCC(=O)O)[C@H]1CO
- AC50 [10]: 16.7 µM (active)

Structure (SMILES): CCN(CC)CCNC(=O)c1sc2nc(-c3ccccc3)cn2c1C
- AC50 (cells [11]): 57 µM (active)

Structure (SMILES): CCO/C(O)=C1/C(C)=Nc2ccccc2N=C1NS(=O)(=O)c1cc(C(=O)O)ccc1Cl
- AC50 (Caspase-6): 28.8 µM (active)

Structure (SMILES): C[C@H]1CN([C@@H](C)CO)C(=O)c2cccc(NC(=O)c3ccncc3)c2O[C@@H]1CN(C)Cc1ccc(C(F)(F)F)cc1
- IC50 [12]: 3.49 µM (inactive)
- AC50 [13]: 0.0127 µM (active)
- IC50 [14]: 2.95 µM (inactive)
- IC50 [15]: 2.95 µM (inactive)
- AC50 [16]: 0.0127 µM (active)
- AC50 [17]: 0.304 µM (active)
- IC50 [18]: 0.00601 µM (active)
- AC50 [19]: 39 µM (inactive)
- IC50 [20]: 45.5 µM (inactive)
- IC50 [21]: 16.3 µM (inactive)

Structure (SMILES): CN1C(=O)c2cc(NC(=O)c3ccc(C(F)(F)F)cc3)ccc2OC[C@H]2O[C@H](CC(=O)NCc3ccc4c(c3)OCO4)CC[C@H]21
- AC50 [22]: 28.4 µM (active)
- AC50 [23]: 0.571 µM (active)
- AC50 [24]: 12.3 µM (active)

Structure (SMILES): Cc1ccc(S(=O)(=O)N2CC[C@@H]3[C@H](CO)Nc4ccc(-c5ccccc5F)cc4[C@@H]32)cc1
- AC50 [25]: 44.6 µM (active)
- AC50 (HEK293): 44.6 µM (active)

Structure (SMILES): COc1ccc(C2CC(c3ccccc3)n3nc(NC(=O)c4cccs4)nc3N2)cc1 (centres undefined)
- IC50 (Protein Tat): > 100 µM (active)
- IC50 [26]: 6.96 µM (active)
- IC50 [27]: > 100 µM (active)
- CC50 [28]: > 40 µM (active)

Reference: ChEMBL document CHEMBL1201862, “PubChem BioAssay data set” (2004)
